Laboratory results: patent US8846690B2, “Heterocyclic carboxylic acid derivatives having a 2,5-substituted oxazolopyrimidine ring” (Sanofi, priority 2010, dated 2014)

Target: T1, human Edg-1 receptor (Homo sapiens, UniProt P21453)
T1 construct: FLAG (N); expressed in transfected cells; membrane preparation
Assay: GTP-γ-S assay using human Edg-1 receptors (scintillation proximity assay, CHO Flp-In membrane preparation)
Type: biochemical
Conditions: test compound 10 μM; high control 10 μM S1P regarded as 100% activation; background-corrected; triplicate
Text: Determination of the Pharmacological Activity A) GTP-γ-S Assay Using Human Edg-1 Receptors
In order to determine the Edg-1 receptor activation by the compounds of the invention, a GTP-γ-S (guanosine 5′-[y-thio]triphosphate) assay for G-protein coupled receptor binding based on the scintillation proximity assay principle was used, employing a cell membrane preparation from a CHO Flp-In cell line which constitutively overexpresses the human Edg-1 receptor.
A membrane preparation was obtained by standard methods from the afore-described CHO Flp-In cell line constitutively overexpressing the human Edg-1 receptor. Briefly, the cryopreserved cells were taken in culture and grown until confluency in T175 cell culture flasks (Becton Dickinson, cat. no. 35 5001). Cell culture was stopped by washing with calcium-free phosphate-buffered saline (PBS; Gibco, cat. no. 14190), and cells were harvested with a rubber-policeman in 4° C. cold and calcium-free PBS supplemented with a protease inhibitor cocktail (complete protease inhibitor; Roche, cat. no. 1697498; 1 tablet per 50 ml) and subsequently centrifuged at 4° C. for 15 min at 1100×g (Heraeus Minifuge T). For cell lysis, the pellet was resuspended in a 4° C. cold hypotonic buffer consisting of 5 mM HEPES (Sigma-Aldrich, cat. no. H-0981), 1 mM EDTA (disodium salt; Merck, cat. No. 8418) supplemented with protease inhibitor cocktail (as above) in which cells were stored for another 15 min on ice. After lysis, cells were centrifuged at 4° C. for 10 min at 400×g (Heraeus Minifuge T). The pellet was disrupted in a Dounce homogenizer, diluted with the supernatant of the previous centrifugation and subsequently centrifuged at 4° C. for 10 min at 500×g (Heraeus Minifuge T) in order to separate nuclei and still intact cells from the membranes mainly present in the supernatant. The supernatant was then diluted in hypotonic buffer and centrifuged (Beckmann, Avanti J251) at approximately 18600×g for 2 h at 4° C. […] Protein concentration of the membrane preparation was determined in a sample by means of a commercial protein assay (Bio-Rad, DC Protein Assay, cat. nos. 500-0113, 500-0114, 500-0115).
The Edg-1 membrane preparation obtained in (b) was employed in a commercially available scintillation proximity assay (SPA) kit for G-protein coupled receptor binding from Amersham Biosciences/GE Healthcare (code RPNQ0210), in which ligand-induced binding of ^35S-radiolabled GTP-γ-S to the receptor-containing membrane, which is bound to scintillation beads, stimulates the emission of light and allows to quantify the in vitro activity of the Edg-1 agonistic compound. […]

T1 sequence (P21453 whole entry): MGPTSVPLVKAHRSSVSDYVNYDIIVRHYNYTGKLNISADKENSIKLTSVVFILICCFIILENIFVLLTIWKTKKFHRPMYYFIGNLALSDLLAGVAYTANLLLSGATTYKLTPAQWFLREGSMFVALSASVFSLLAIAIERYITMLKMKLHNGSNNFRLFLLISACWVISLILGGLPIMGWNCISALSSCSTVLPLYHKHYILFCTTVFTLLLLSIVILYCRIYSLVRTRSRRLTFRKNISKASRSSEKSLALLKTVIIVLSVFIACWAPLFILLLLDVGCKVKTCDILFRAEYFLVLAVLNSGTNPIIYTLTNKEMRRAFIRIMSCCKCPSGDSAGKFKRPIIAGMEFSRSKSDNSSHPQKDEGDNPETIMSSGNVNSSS

| Edg-1 receptor activation in percent of the activation by 10 μM S1P (% Activation) [%] | Structure (SMILES) |
| --- | --- |
| 115 | Cc1cc(-c2nc3cnc(Oc4ccccc4F)nc3o2)cc(C)c1OCC(=O)N1CCC[C@H]1C(=O)O [Example 1, (S)-1-(2-{4-[5-(2-Fluoro-phenoxy)-oxazolo[5,4-d]pyrimidin-2-yl]-2,6-dimethyl-phenoxy}-acetyl)-pyrrolidine-2-carboxylic acid] |
| 93 | Cc1cc(-c2nc3cnc(Oc4ccccc4F)nc3o2)cc(C)c1OC(C)C(=O)N1CCC[C@H]1C(=O)O (stereo partly drawn) [Example 2, (S)-1-(2-{4-[5-(2-Fluoro-phenoxy)-oxazolo[5,4-d]pyrimidin-2-yl]-2,6-dimethyl-phenoxy}-propionyl)-pyrrolidine-2-carboxylic acid] |
| 82 | O=C(O)[C@@H]1CCCN1C(=O)/C=C/c1ccc(-c2nc3cnc(Oc4ccccc4F)nc3o2)cc1 [Example 3, (S)-1-((E)-3-{4-[5-(2-Fluoro-phenoxy)-oxazolo[5,4-d]pyrimidin-2-yl]-phenyl}-acryloyl)-pyrrolidine-2-carboxylic acid] |
| 103 | O=C(O)[C@@H]1CCCN1C(=O)CCc1ccc(-c2nc3cnc(Oc4ccccc4F)nc3o2)cc1 [Example 4, (S)-1-(3-{4-[5-(2-Fluoro-phenoxy)-oxazolo[5,4-d]pyrimidin-2-yl]-phenyl}-propionyl)-pyrrolidine-2-carboxyl is acid] |
